Legend:
[1] = tested on: P-388 Lymphocytic Leukemia; experiment: Murine P-388 lymphocytic leukemia cell line inhibition; format: cell-based; conditions: P-388 mouse leukemia
[2] = tested on: NCI-H460 (non-small lung carcinoma); experiment: in vitro cytotoxicity, cultured cancer cell panel: NCI-H460; format: cell-based, Human; conditions: for GI-50: NCI-H460, lung-NSC, 48 hours; for LC-50 / TGI: NCI-H460; for LC-50: -50% growth; for TGI: total growth inhibition (0% growth)
Protocol: (§1) Compounds prepared according to Examples 1-14 above were evaluated for in vitro cytotoxicity against a panel of cultured cancer cells, including the cell lines OVCAR-3 (ovarian cancer), SF-295 (central nervous system), A498 (renal cancer), NCI-H460 (non-small lung carcinoma), KM20L2 (colon cancer) and SK-MEL-5 (melanoma). For each cell line, each compound was tested at 5 concentrations, 100 μg/mL, 10 μg/mL, 1 μg/mL, 0.1 μg/mL and 0.01 μg/mL. Percent growth values were calculated for each concentration, and the two or three concentrations with growth values above, below or near 50% growth (relative to control) were used to calculate the ED50 value using a linear regression calculation. In cases in which 50% growth inhibition was not observed for any of the concentrations, the ED50 value was expressed as ED50 >100 μg/mL. If the growth inhibition was greater than 50% for each concentration, the ED50 was expressed as <0.01 μg/mL. Similar calculations were performed for total growth inhibition (TGI; 0% growth) and LC50 (-50% growth).
(§2) At the start of each experiment, cells from the in vitro cell culture were inoculated into tubes or microtiter plates. One set of control tubes/plates was immediately counted to determine the cell count at the beginning of the experiment. This is the "baseline count" or T0 reading. After 48 hours, a second set of control tubes/plates is analyzed to determine the control growth value. The growth or death of cells relative to the T0 value is used to define the percent growth.

[3] = tested on: SF-295 (central nervous system); experiment: in vitro cytotoxicity, cultured cancer cell panel: SF-295; format: cell-based, Human; conditions: for GI-50: SF-295, CNS, 48 hours; for LC-50 / TGI: SF-295; for LC-50: -50% growth; for TGI: total growth inhibition (0% growth)
Protocol: as §1, §2

A498 (renal cancer) = experiment: in vitro cytotoxicity, cultured cancer cell panel: A498; format: cell-based, Human; conditions: for GI-50: A498, renal, 48 hours; for LC-50 / TGI: A498; for LC-50: -50% growth; for TGI: total growth inhibition (0% growth)
Protocol: as §1, §2

OVCAR-3 (ovarian cancer) = experiment: in vitro cytotoxicity, cultured cancer cell panel: OVCAR-3; format: cell-based, Human; conditions: for GI-50: OVCAR-3, ovarian, 48 hours; for LC-50 / TGI: OVCAR-3; for LC-50: -50% growth; for TGI: total growth inhibition (0% growth)
Protocol: as §1, §2

SK-MEL-5 (melanoma) = experiment: in vitro cytotoxicity, cultured cancer cell panel: SK-MEL-5; format: cell-based, Human; conditions: for GI-50: SK-MEL-5, melanoma, 48 hours; for LC-50 / TGI: SK-MEL-5; for LC-50: -50% growth; for TGI: total growth inhibition (0% growth)
Protocol: as §1, §2

KM20L2 (colon cancer) = experiment: in vitro cytotoxicity, cultured cancer cell panel: KM20L2; format: cell-based, Human; conditions: for GI-50: KM20L2, colon, 48 hours; for LC-50 / TGI: KM20L2; for LC-50: -50% growth; for TGI: total growth inhibition (0% growth)
Protocol: as §1, §2

tubulin = conditions: cited from earlier work
[4] = tested on: human lymphoma cell lines; conditions: cited from earlier work
[5] = tested on: P388 lymphocytic leukemia (PS system) cell line; conditions: cited from earlier work

Dov-Val-Dil-Dap-Phe Amide [Compound 28d]
ED50 [1]: 0.00255 ng/mL | GI-50 [2]: 4.1e-07 µg/mL | LC-50 [2]: > 0.0001 µg/mL | TGI [2]: > 0.1 ng/mL | GI-50 [3]: 6.1e-07 µg/mL | LC-50 [3]: > 0.0001 µg/mL | TGI [3]: > 0.1 ng/mL | GI-50 (A498 (renal cancer)): 3.4e-06 µg/mL | LC-50 (A498 (renal cancer)): > 0.0001 µg/mL | TGI (A498 (renal cancer)): > 0.1 ng/mL | GI-50 (OVCAR-3 (ovarian cancer)): 3e-07 µg/mL | LC-50 (OVCAR-3 (ovarian cancer)): > 0.0001 µg/mL | TGI (OVCAR-3 (ovarian cancer)): 0.011 ng/mL | GI-50 (SK-MEL-5 (melanoma)): 5.6e-07 µg/mL | LC-50 (SK-MEL-5 (melanoma)): > 0.0001 µg/mL | TGI (SK-MEL-5 (melanoma)): > 0.1 ng/mL | GI-50 (KM20L2 (colon cancer)): 2e-07 µg/mL | LC-50 (KM20L2 (colon cancer)): > 0.0001 µg/mL | TGI (KM20L2 (colon cancer)): 0.0041 ng/mL

Dolastatin 15
tubulin polymerization (tubulin): effectively inhibit | growth of four different human lymphoma cell lines [4]: effectively inhibit | growth of P388 lymphocytic leukemia (PS system) cell line [5]: inhibits the growth

Dov-Val-Dil-Dap 1-bicyclo[3.3.0]octane amide [Compound 13b]
ED50 [1]: 2.2 ng/mL | GI-50 [2]: 0.00047 µg/mL | LC-50 [2]: > 0.01 µg/mL | TGI [2]: > 10 ng/mL | GI-50 (A498 (renal cancer)): 0.002 µg/mL | LC-50 (A498 (renal cancer)): > 0.01 µg/mL | TGI (A498 (renal cancer)): > 10 ng/mL | GI-50 (SK-MEL-5 (melanoma)): 0.0007 µg/mL | LC-50 (SK-MEL-5 (melanoma)): > 0.01 µg/mL | TGI (SK-MEL-5 (melanoma)): > 10 ng/mL | GI-50 (KM20L2 (colon cancer)): 0.00036 µg/mL | LC-50 (KM20L2 (colon cancer)): > 0.01 µg/mL | TGI (KM20L2 (colon cancer)): > 10 ng/mL

Dolastatin 10
tubulin polymerization (tubulin): effectively inhibit | growth of four different human lymphoma cell lines [4]: effectively inhibit

Dov-Val-Dil-Dap 2-[p-aminophenyl]ethylamide [Compound 29d]
ED50 [1]: 0.338 ng/mL | GI-50 [2]: 0.00013 µg/mL | TGI [2]: 0.87 ng/mL | GI-50 [3]: 0.00053 µg/mL | GI-50 (A498 (renal cancer)): > 0.01 µg/mL | GI-50 (OVCAR-3 (ovarian cancer)): 5e-05 µg/mL | TGI (OVCAR-3 (ovarian cancer)): 0.79 ng/mL | GI-50 (SK-MEL-5 (melanoma)): 0.00023 µg/mL | GI-50 (KM20L2 (colon cancer)): 4.9e-05 µg/mL | TGI (KM20L2 (colon cancer)): > 10 ng/mL

Dov-Val-Dil-Dap-Met 1-(bicyclo[3.3.0]octane) Amide [Compound 12d]
GI-50 [2]: 0.00029 µg/mL | LC-50 [2]: > 0.01 µg/mL | TGI [2]: 4 ng/mL | GI-50 [3]: 0.00047 µg/mL | LC-50 [3]: > 0.01 µg/mL | TGI [3]: > 10 ng/mL | GI-50 (A498 (renal cancer)): 0.00048 µg/mL | LC-50 (A498 (renal cancer)): > 0.01 µg/mL | TGI (A498 (renal cancer)): > 10 ng/mL | GI-50 (OVCAR-3 (ovarian cancer)): 0.00031 µg/mL | LC-50 (OVCAR-3 (ovarian cancer)): > 0.01 µg/mL | TGI (OVCAR-3 (ovarian cancer)): > 10 ng/mL | GI-50 (SK-MEL-5 (melanoma)): 0.00044 µg/mL | LC-50 (SK-MEL-5 (melanoma)): > 0.01 µg/mL | TGI (SK-MEL-5 (melanoma)): > 10 ng/mL | GI-50 (KM20L2 (colon cancer)): 0.0003 µg/mL | LC-50 (KM20L2 (colon cancer)): > 0.01 µg/mL | TGI (KM20L2 (colon cancer)): 0.9 ng/mL
